From US20180074053A1 (priority 2016, published 2018)
Non-standard residues stand in square brackets, D forms with d. No end group written: not given here.

Experiments:
[1] = biological target: GPCR109a (Homo sapiens, UniProt Q8TDS4); settings: doses of 5 mM and below; FIG. 6A
Description: (§1) Cells were grown in DMEM medium containing 10% FBS, 1× non-essential amino acids (Gibco #111450-040), 20 mM HEPES and 250 μg/mL Geneticin® (Gibco #10131-035). Cells were harvested with 0.25% Trypsin/EDTA (Gibco #25200-056), pelleted at 1,200×g for 6 minutes and resuspended in DMEM media described above minus Geneticin®. The cells were seeded at 4×10^4 cells/well/100 μL of a clear bottom/black 96-well plate and grown overnight. The calcium mobilization assays was performed using Screen Quest Fluo-8 Medium Removal Calcium Assay Kit (AAT Bioquest #36308) according to the manufacturer's protocol. Briefly, cells were washed with 100 μL volume of Hank's balanced salt solution, 20 mM HEPES, pH 7.4 and loaded with a buffer containing HBSS, 20 mM HEPES, 1× Pluronic F127 and the Fluo-8 NW dye. The cells were incubated for 30 minutes at 37° C. followed by a 30 minute room temperature incubation. Drug stocks were prepared at 100× concentration and diluted 1:33 in HBSS, 20 mM HEPES, pH 7.4 in a 96-well plate (Corning #3641). Calcium mobilization was measured using the FlexStation 3 (Molecular Devices) at excitation wavelength of 490 nm and emission wavelength of 525 nm. Fluorescence was measured for 180 seconds at 5 second intervals with the addition of compound at a 1:3 dilution after 15 seconds. Peak fluorescence values were calculated using SoftMax Pro 5 (Molecular Devices). The fluorescence values obtained from control wells without cells are subtracted from wells containing treated cells to correct for background. The ratio of fluorescence values of treated cells to vehicle control wells was used to calculate fold activity of the compounds.
(§2) The specificity of the agonist activity was determined by testing in the cell lines that over-express GPCR40 and GPCR 109a.

[2] = biological target: GPCR40 (Homo sapiens, UniProt O14842); settings: doses of 5 mM and below; FIG. 7A
Sequence of GPCR40 (O14842 whole entry): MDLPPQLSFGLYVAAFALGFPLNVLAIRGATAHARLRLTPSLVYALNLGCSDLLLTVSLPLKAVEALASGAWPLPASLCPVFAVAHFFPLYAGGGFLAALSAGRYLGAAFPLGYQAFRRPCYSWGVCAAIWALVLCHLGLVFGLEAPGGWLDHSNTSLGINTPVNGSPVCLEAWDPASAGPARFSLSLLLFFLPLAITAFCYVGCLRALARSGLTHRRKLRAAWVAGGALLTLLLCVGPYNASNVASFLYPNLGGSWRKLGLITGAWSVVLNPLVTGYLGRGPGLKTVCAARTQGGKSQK
Description: as §1, §2

[3] = test system: eNOS; test: eNOS mRNA expression in HUVEC; format: cell-based, human; settings: FIG. 15
Text: It has been shown that activation of MRGD by alamandine plays an important role in vasodilation by increasing nitric oxide (NO) production. NO produced by the endothelium is an important protective molecule in the vasculature and is mainly generated by the enzyme endothelial NO synthase (eNOS) in blood vessels. Enhancing the expression of eNOS has been considered as possible therapeutic strategy for reducing cardiovascular risk.

[4] = test system: HEK293T cells; settings: 0.0037-0.1 mM; FIG. 4
Description: Real-time Ca2+ flux assays. To further validate the GPCRProfiler results, we established a real-time Ca2+ flux assay using a FlexStation 3 Microplate Reader (Molecular Devices). […] The Fluo-4 Direct™ Calcium Assay Kits (Life Technologies), which allows direct addition to wells containing cells growing in culture media without the requirement of media removal or a wash step, is used to monitor Ca2+ flux in cells according to the manufacturer's protocol. Briefly, HEK293T cells are plated and cultured in 96-well microplates to near confluence. The microplates containing cells are removed from the incubator and an equal volume of 2× Fluo-4 Direct™ calcium reagent loading solution is added directly to wells containing cells in culture medium. The plates are incubated for 30 minutes at 37° C. and 30 minutes at room temperature. Then the plates (no need to remove the medium or Fluo-4 Direct™ calcium reagent) are placed on FlexStation 3 with settings appropriate for excitation at 494 nm and emission at 516 nm. FlexStation 3 can directly transfer reagents from 96-well source plates to a read plate one column at a time. […] Shaded shapes are negative controls.

[5] = test system: C57BL/6J mice; test: Oral glucose tolerance test (OGTT); format: in vivo, mouse
Description: (§3) C57BL/6J mice were received from Jackson Laboratories at 4 weeks old and aged to 7 weeks and then grouped by body weight into 4 groups of 10. The mice were fasted overnight (12 hours) prior to the assay. Body weights and blood glucose (FreeStyle Lite glucometer) levels were determined. […] At 30, 60, 90, and 120 minutes glucose levels were measured using whole blood collected from the tip of the tail via needle puncture. Upon the final 120 min measurement, food was returned to the mice.
Oral glucose tolerance tests (OGTTs) were performed as described in Example 1.
as §3, with “puncture.” for “puncture. Upon the final 120 min measurement, food was returned to the mice.”
as §3, with “puncture.” for “puncture. Upon the final 120 min measurement, food was returned to the mice.”

[6] = test system: HUVEC cells; settings: 4 mM time course, 0.05-32.0 mM for 60 minutes; FIGS. 16, 17
Description: Briefly, HUVEC cells, previously plated in 96-well plate, were washed and the media changed to DMEM with 3% FBS for overnight incubation and cell starvation. On the day of the experiment, the cells were incubated with DAF-FM diacetate (Molecular Probes, catalog #D23842) at the final concentration of 7-10 nM for 30 minutes. […] Every treatment was performed in triplicate. The fluorescence was detected starting at 10 min with exc/em of 495 nm/515 nm.
The background signal (fluorescence signal from cells that were not loaded with dye) was subtracted from the other measurements.
Briefly, HUVEC cells, previously plated in 96-well plate, were washed and the media changed to DMEM with 3% FBS for overnight incubation and cell starvation. On the day of the experiment, the cells were incubated with DAF-FM diacetate (Molecular Probes, catalog #D23842) at the final concentration of 7-10 nM for 30 minutes. […] Every treatment was performed in triplicate. The fluorescence was detected 60 minutes with exc/em of 495 nm/515 nm.

[7] = biological target: MAS-related G-protein-coupled receptor member D (MRGD) (human, UniProt Q8TDS7 1-321); test: cell-based or functional assay
Sequence of MAS-related G-protein-coupled receptor member D (MRGD) (Q8TDS7 whole entry): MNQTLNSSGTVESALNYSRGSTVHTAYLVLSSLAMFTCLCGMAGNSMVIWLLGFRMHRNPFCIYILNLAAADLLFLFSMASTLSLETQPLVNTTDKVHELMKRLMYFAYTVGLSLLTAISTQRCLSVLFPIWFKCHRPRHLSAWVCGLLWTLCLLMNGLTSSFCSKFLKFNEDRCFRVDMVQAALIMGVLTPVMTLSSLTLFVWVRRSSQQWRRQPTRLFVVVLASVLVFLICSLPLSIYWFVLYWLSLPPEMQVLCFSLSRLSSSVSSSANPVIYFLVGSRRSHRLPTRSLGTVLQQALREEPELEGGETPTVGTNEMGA

Sequence of GPCR109a (Q8TDS4 whole entry): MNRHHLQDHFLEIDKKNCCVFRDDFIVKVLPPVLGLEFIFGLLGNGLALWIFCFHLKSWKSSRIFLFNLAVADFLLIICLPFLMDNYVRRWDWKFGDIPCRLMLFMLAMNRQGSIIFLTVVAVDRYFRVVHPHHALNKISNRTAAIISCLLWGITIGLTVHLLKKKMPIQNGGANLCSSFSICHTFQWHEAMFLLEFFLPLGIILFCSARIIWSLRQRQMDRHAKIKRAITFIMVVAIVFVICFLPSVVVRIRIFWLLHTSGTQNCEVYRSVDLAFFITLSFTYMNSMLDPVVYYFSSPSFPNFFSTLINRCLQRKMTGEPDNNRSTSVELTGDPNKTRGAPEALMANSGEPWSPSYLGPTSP

Molecule | agonist activity (Ca2+ flux) [1] | agonist activity (Ca2+ flux) [2] | eNOS mRNA levels ([3]; 30 minutes, vs control) | eNOS expression ([3]; 60 minutes) | eNOS expression ([3]; 120 minutes) | real-time Ca2+ flux [4] | significance of blood glucose lowering in OGTT ([5]; Example 5, FIG. 9, 0.1 mg/g) | significance of blood glucose lowering in OGTT ([5]; Example 5, FIG. 9, 0.5 mg/g) | significance of blood glucose lowering in OGTT ([5]; Example 5, FIG. 9, 1 mg/g) | blood glucose in response to a glucose load (OGTT) ([5]; Example 5, FIG. 9, 1, 0.5 and 0.1 mg/g body weight) | overall effect on blood glucose compared with metformin ([5]; Example 9) | overall effect on blood glucose in OGTT vs vehicle ([5]; Example 9, FIG. 14, DT-110 1 mg/g, alamandine 10 mg/g, metformin 0.2 mg/g) | rise in blood glucose at 30 min in OGTT ([5]; Example 9, DT-110 1 mg/g, P<0.001 vs. all other treatments) | effect on blood glucose compared with alamandine ([5]; Example 9, P<0.001) | nitric oxide (NO) release [6] | EC50, calcium mobilization in MRGD cells (FIG. 12) [7] [µM] | EC50, calcium mobilization in MRGD over-expressing cells (FIG. 5) [7] [µM] | EC50, calcium mobilization in the MRGD cell line (FIG. 8) [7] [µM]
CC(C)C[C@@H](NC(=O)CNC(=O)CN)C(=O)O | inactive | inactive | the same | increased eNOS expression | increased eNOS expression | stimulate greater Ca^2+ flux | significant | significant | significant | lower blood glucose in response to a glucose load, in a dose-dependent manner | not found to be significantly different | significant | dramatically blocked the rise in blood glucose | significantly different from alamandine | Stimulates Nitric Oxide Release |  |  | 
Gly-Gly-[dL] [DT-110, tripeptide glycine-glycine-D-leucine (GGdL)] |  |  |  |  |  |  |  |  |  |  |  |  |  |  |  | ~360 | 76 | 161
